pIC50: −log10 of the molar value.
Assays:
UACC-257 = assay: Cytotoxicity against human UACC257 cells assessed as growth inhibition after 48 hrs by sulforhodamine B assay; type: functional; settings: UACC-257, 48 h
A549 = assay: Cytotoxicity against human A549/ATCC cells assessed as cell growth at 0.1 uM after 48 hrs by sulforhodamine B assay relative to control; type: functional; settings: A549, 48 h, read-out: Activity
BT-549 [1] = assay: Cytotoxicity against human BT549 cells assessed as cell growth at 100 uM after 48 hrs by sulforhodamine B assay relative to control; type: functional; settings: BT-549, 48 h, read-out: Activity
Malme-3M = assay: Cytotoxicity against human MALME-3M cells assessed as growth inhibition after 48 hrs by sulforhodamine B assay; type: functional
K562 = assay: Cytotoxicity against human K562 cells assessed as cell growth at 1 uM after 48 hrs by sulforhodamine B assay relative to control; type: functional; settings: K562, 48 h, read-out: Activity
SK-MEL-28 [2] = assay: Cytotoxicity against human SK-MEL-28 cells assessed as cell growth at 0.1 uM after 48 hrs by sulforhodamine B assay relative to control; type: functional; settings: SK-MEL-28, 48 h, read-out: Activity
CCRF-CEM [3] = assay: Cytotoxicity against human CCRF-CEM cells assessed as cell growth at 1 uM after 48 hrs by sulforhodamine B assay relative to control; type: functional; settings: read-out: Activity
UO-31 = assay: Cytotoxicity against human UO31 cells assessed as growth inhibition after 48 hrs by sulforhodamine B assay; type: functional; settings: UO-31, 48 h
OVCAR-4 = assay: Cytotoxicity against human OVCAR4 cells assessed as cell growth at 10 uM after 48 hrs by sulforhodamine B assay relative to control; type: functional; settings: OVCAR-4, 48 h, read-out: Activity
SN12C [4] = assay: Cytotoxicity against human SN12C cells assessed as cell growth at 0.1 uM after 48 hrs by sulforhodamine B assay relative to control; type: functional; settings: read-out: Activity
MDA-MB-231 [5] = assay: Cytotoxicity against human MDA-MB-231 cells assessed as cell growth at 0.01 uM after 48 hrs by sulforhodamine B assay relative to control; type: functional; settings: MDA-MB-231, 48 h, read-out: Activity
TK-10 [6] = assay: Cytotoxicity against human TK10 cells assessed as cell growth at 0.01 uM after 48 hrs by sulforhodamine B assay relative to control; type: functional; settings: TK-10, 48 h, read-out: Activity
M14 = assay: Cytotoxicity against human M14 cells assessed as cell growth at 100 uM after 48 hrs by sulforhodamine B assay relative to control; type: functional; settings: M14, 48 h, read-out: Activity
U-251 [7] = assay: Cytotoxicity against human U251 cells assessed as cell growth at 0.01 uM after 48 hrs by sulforhodamine B assay relative to control; type: functional; settings: U-251, 48 h, read-out: Activity
U-251 [8] = assay: Cytotoxicity against human U251 cells assessed as cell growth at 10 uM after 48 hrs by sulforhodamine B assay relative to control; type: functional; settings: U-251, 48 h, read-out: Activity
BT-549 [9] = assay: Cytotoxicity against human BT549 cells assessed as cell growth at 0.01 uM after 48 hrs by sulforhodamine B assay relative to control; type: functional; settings: BT-549, 48 h, read-out: Activity
NCI-H322M = assay: Cytotoxicity against human NCI-H322M cells assessed as growth inhibition after 48 hrs by sulforhodamine B assay; type: functional; settings: for CC50: read-out: LC50 (the source's name)
SNB-19 = assay: Cytotoxicity against human SNB19 cells assessed as cell growth at 10 uM after 48 hrs by sulforhodamine B assay relative to control; type: functional; settings: SNB-19, 48 h, read-out: Activity
CCRF-CEM [10] = assay: Cytotoxicity against human CCRF-CEM cells assessed as cell growth at 0.01 uM after 48 hrs by sulforhodamine B assay relative to control; type: functional; settings: read-out: Activity
HL-60(TB) = assay: Cytotoxicity against human HL-60(TB) cells assessed as cell growth at 1 uM after 48 hrs by sulforhodamine B assay relative to control; type: functional; settings: HL-60, 48 h, read-out: Activity
SK-MEL-28 [11] = assay: Cytotoxicity against human SK-MEL-28 cells assessed as cell growth at 0.01 uM after 48 hrs by sulforhodamine B assay relative to control; type: functional; settings: SK-MEL-28, 48 h, read-out: Activity
MDA-MB-468 = assay: Cytotoxicity against human MDA-MB-468 cells assessed as cell growth at 0.01 uM after 48 hrs by sulforhodamine B assay relative to control; type: functional; settings: MDA-MB-468, 48 h, read-out: Activity
RXF 393 [12] = assay: Cytotoxicity against human RXF393 cells assessed as cell growth at 0.1 uM after 48 hrs by sulforhodamine B assay relative to control; type: functional; settings: RXF 393, 48 h, read-out: Activity
SR [13] = assay: Cytotoxicity against human SR cells assessed as cell growth at 0.01 uM after 48 hrs by sulforhodamine B assay relative to control; type: functional; settings: read-out: Activity
TK-10 [14] = assay: Cytotoxicity against human TK10 cells assessed as cell growth at 0.1 uM after 48 hrs by sulforhodamine B assay relative to control; type: functional; settings: TK-10, 48 h, read-out: Activity
MOLT-4 = assay: Cytotoxicity against human MOLT4 cells assessed as cell growth at 1 uM after 48 hrs by sulforhodamine B assay relative to control; type: functional; settings: MOLT-4, 48 h, read-out: Activity
U-251 [15] = assay: Cytotoxicity against human U251 cells assessed as cell growth at 1 uM after 48 hrs by sulforhodamine B assay relative to control; type: functional; settings: U-251, 48 h, read-out: Activity
TK-10 [16] = assay: Cytotoxicity against human TK10 cells assessed as cell growth at 10 uM after 48 hrs by sulforhodamine B assay relative to control; type: functional; settings: TK-10, 48 h, read-out: Activity
A498 = assay: Cytotoxicity against human A498 cells assessed as cell growth at 10 uM after 48 hrs by sulforhodamine B assay relative to control; type: functional; settings: A498, 48 h, read-out: Activity
HT-29 = assay: Cytotoxicity against human HT-29 cells assessed as cell growth at 10 uM after 48 hrs by sulforhodamine B assay relative to control; type: functional; settings: HT-29, 48 h, read-out: Activity
SK-MEL-28 [17] = assay: Cytotoxicity against human SK-MEL-28 cells assessed as cell growth at 1 uM after 48 hrs by sulforhodamine B assay relative to control; type: functional; settings: SK-MEL-28, 48 h, read-out: Activity
MDA-MB-435 = assay: Cytotoxicity against human MDA-MB-435 cells assessed as cell growth at 1 uM after 48 hrs by sulforhodamine B assay relative to control; type: functional; settings: MDA-MB-435, 48 h, read-out: Activity
RXF 393 [18] = assay: Cytotoxicity against human RXF393 cells assessed as cell growth at 100 uM after 48 hrs by sulforhodamine B assay relative to control; type: functional; settings: RXF 393, 48 h, read-out: Activity
SR [19] = assay: Cytotoxicity against human SR cells assessed as growth inhibition after 48 hrs by sulforhodamine B assay; type: functional; settings: for CC50: read-out: LC50 (the source's name)
MDA-MB-231 [20] = assay: Cytotoxicity against human MDA-MB-231 cells assessed as growth inhibition after 48 hrs by MTT assay; type: functional, cell-based; settings: MDA-MB-231, 48 h
Hs-578T = assay: Cytotoxicity against human Hs 578T cells assessed as cell growth at 0.01 uM after 48 hrs by sulforhodamine B assay relative to control; type: functional; settings: read-out: Activity
SN12C [21] = assay: Cytotoxicity against human SN12C cells assessed as cell growth at 10 uM after 48 hrs by sulforhodamine B assay relative to control; type: functional; settings: read-out: Activity

COc1ccc(-c2cc(/C=C/C(=O)c3cc(OC)c(OC)c(OC)c3)[nH]n2)cc1OC
GI50 (UACC-257): 1.79 µM
LC50 (UACC-257): 8.05 µM
TGI (UACC-257): 3.8 µM
growth at 0.1 µM (A549): 98%
growth at 100 µM (BT-549 [1]): -93%
GI50 (Malme-3M): 2.32 µM
LC50 (Malme-3M): 47.5 µM
TGI (Malme-3M): 6.19 µM
growth at 1 µM (K562): 43%
growth at 0.1 µM (SK-MEL-28 [2]): 91%
growth at 1 µM (CCRF-CEM [3]): 14%
GI50 (UO-31): 1.27 µM
LC50 (UO-31): 5.29 µM
TGI (UO-31): 2.59 µM
growth at 10 µM (OVCAR-4): -11%
growth at 0.1 µM (SN12C [4]): 99%
growth at 0.01 µM (MDA-MB-231 [5]): 98%
growth at 0.01 µM (TK-10 [6]): 93%
growth at 100 µM (M14): -74%
growth at 0.01 µM (U-251 [7]): 99%
growth at 10 µM (U-251 [8]): -97%
growth at 0.01 µM (BT-549 [9]): 96%
GI50 (NCI-H322M): 2.02 µM
TGI (NCI-H322M): 6.03 µM
CC50 (NCI-H322M): 25 µM
growth at 10 µM (SNB-19): -29%
growth at 0.01 µM (CCRF-CEM [10]): 97%
growth at 1 µM (HL-60(TB)): 64%
growth at 0.01 µM (SK-MEL-28 [11]): 95%
growth at 0.01 µM (MDA-MB-468): 98%
growth at 0.1 µM (RXF 393 [12]): 102%
growth at 0.01 µM (SR [13]): 93%
growth at 0.1 µM (TK-10 [14]): 89%
growth at 1 µM (MOLT-4): 69%
growth at 1 µM (U-251 [15]): 65%
growth at 10 µM (TK-10 [16]): 7%
growth at 10 µM (A498): -28%
growth at 10 µM (HT-29): -87%
growth at 1 µM (SK-MEL-28 [17]): 89%
growth at 1 µM (MDA-MB-435): 85%
growth at 100 µM (RXF 393 [18]): -83%
GI50 (SR [19]): 0.2 µM
TGI (SR [19]): 2.26 µM
CC50 (SR [19]): > 100 µM
pIC50 (MDA-MB-231 [20]): 5.70
growth at 0.01 µM (Hs-578T): 95%
growth at 10 µM (SN12C [21]): -62%

COc1ccc(-c2cc(/C=C/C(=O)c3ccc(N)cc3)[nH]n2)cc1OC
GI50 (UACC-257): 6.46 µM
LC50 (UACC-257): 45.7 µM
TGI (UACC-257): 19.5 µM
growth at 0.1 µM (A549): 93%
growth at 100 µM (BT-549 [1]): -98%
GI50 (Malme-3M): 6.72 µM
LC50 (Malme-3M): 59.2 µM
TGI (Malme-3M): 21.2 µM
growth at 1 µM (K562): 71%
growth at 0.1 µM (SK-MEL-28 [2]): 93%
growth at 1 µM (CCRF-CEM [3]): 68%
GI50 (UO-31): 3.03 µM
LC50 (UO-31): 43.2 µM
TGI (UO-31): 13.1 µM
growth at 10 µM (OVCAR-4): 24%
growth at 0.1 µM (SN12C [4]): 99%
growth at 0.01 µM (MDA-MB-231 [5]): 113%
growth at 0.01 µM (TK-10 [6]): 102%
growth at 100 µM (M14): -90%
growth at 0.01 µM (U-251 [7]): 95%
growth at 10 µM (U-251 [8]): -68%
growth at 0.01 µM (BT-549 [9]): 84%
GI50 (NCI-H322M): 4.34 µM
TGI (NCI-H322M): 16.5 µM
CC50 (NCI-H322M): 46.2 µM
growth at 10 µM (SNB-19): 31%
growth at 0.01 µM (CCRF-CEM [10]): 97%
growth at 1 µM (HL-60(TB)): 97%
growth at 0.01 µM (SK-MEL-28 [11]): 92%
growth at 0.01 µM (MDA-MB-468): 94%
growth at 0.1 µM (RXF 393 [12]): 92%
growth at 0.01 µM (SR [13]): 98%
growth at 0.1 µM (TK-10 [14]): 100%
growth at 1 µM (MOLT-4): 93%
growth at 1 µM (U-251 [15]): 88%
growth at 10 µM (TK-10 [16]): 56%
growth at 10 µM (A498): -16%
growth at 10 µM (HT-29): -19%
growth at 1 µM (SK-MEL-28 [17]): 89%
growth at 1 µM (MDA-MB-435): 94%
growth at 100 µM (RXF 393 [18]): -95%
GI50 (SR [19]): 0.58 µM
TGI (SR [19]): 5.31 µM
CC50 (SR [19]): > 100 µM
pIC50 (MDA-MB-231 [20]): 5.66
growth at 0.01 µM (Hs-578T): 98%
growth at 10 µM (SN12C [21]): 14%

From ChEMBL document CHEMBL4138123, “Design, synthesis and biological evaluation of novel pyrazolochalcones as potential modulators of PI3K/Akt/mTOR pathway and inducers of apoptosis in breast cancer cells” (Eur J Med Chem, 2017)
